# Results from paper PMC6273578, “Design, Synthesis and Biological Evaluation of Benzohydrazide Derivatives Containing Dihydropyrazoles as Potential EGFR Kinase Inhibitors” (Molecules, 2016).
# How the values were obtained:
# [1] = tested on: HepG2 cells; assay: MTT antiproliferative assay, HepG2; format: cell-based, human; conditions: Homo sapiens, read-out: In vitro antiproliferative activity IC50, HepG2
# Protocol: (§1) IC50 values of the test compounds against A549, MCF-7, Hela and HepG2 cells were obtained from State Key Laboratory of Pharmaceutical Biotechnology, Nanjing University, and were determined by a standard (MTT)-based colorimetric assay (Beyotime Inst. Biotech., Nanjing, China). Tumor cell lines were grown to mid-log phase and then diluted to […] making sure they were seeded in 96-well plates (Philas, Nanjing, China) at a density of 5 × 10^3–1 × 10^4 cells per well. The outer wells containing 1 × PBS solution of the plate are not used for the assay to avoid the possibility of edge effects. The plate was incubated at 37 °C in a 5% CO2 incubator in DMEM containing 10% fetal bovine serum (FBS, Gibco, Waltham, MA, USA) for 24 h. Then, we added a 100-μL series concentration of drug-containing medium into the wells to maintain the final concentration of drug as 100, 10, 1 and 0.1 μmol/L. After 12 h, cell survival was determined by the addition of a MTT (3-(4,5-dimethylthiazol-2-yl)-2,5-diphenyl trtrazolium bromide) solution (10 μL of 5 mg/mL MTT in 1 × PBS). We waited for 4 h proliferation, discarded the medium and quickly added 150 μL DMSO per well, shaking the plates well for 10 min to ensure complete dissolution. Optical absorbance was measured at 570 nm on a microplate reader (Bio-Rad, Hercules, CA, USA). Survival ratios are expressed in percentages with respect to untreated cells. The experiments were replicated at least three times to verify the methodology reproducibility when using the above-mentioned conditions.
# [2] = Cytotoxicity test (MTT) on 293T cells; conditions: human, 293T human kidney epithelial cells
# Protocol: The cytotoxic activity in vitro was measured by the colorimetric MTT assay. […] For the cytotoxicity assay, 20 μL of MTT (5 mg/mL) was added per well 4 h before the end of the incubation. After removing the supernatant, 200 μL DMSO was added to dissolve the formazan crystals. The absorbance at λ 570 nm was read on an LX300 Epson Diagnostic microplate reader, untreated cells were used as negative controls.
# [3] = target: epidermal growth factor receptor (EGFR) (Homo sapiens, UniProt P00533); assay: EGFR kinase inhibition, solid-phase ELISA assay
# Protocol: All these newly synthesized compounds were evaluated for their inhibitory activities against EGFR kinases using a solid-phase ELISA assay.
# EGFR tyrosine kinase activity was determined by an enzyme linked-immunosorbent assay (ELISA) in 96-well plates precoated in a 10 mL reaction volume including 4 mL diluted test compounds, 4 mL substrate and 2 mL ATP. […] The plates were then aspirated and washed twice with 200 mL 0.9% (w/v) NaCl, and incorporation of Pi was determined with an LX300 Epson Diagnostic microplate reader. […] The experiments were replicated at least three times to verify the methodology reproducibility when using the above-mentioned conditions.
# [4] = tested on: HeLa cells; assay: MTT antiproliferative assay, HeLa; format: cell-based, human; conditions: Homo sapiens, read-out: In vitro antiproliferative activity IC50, HeLa
# Protocol: as §1
# [5] = tested on: A549 cells; assay: MTT antiproliferative assay, A549; format: cell-based, human; conditions: Homo sapiens, read-out: In vitro antiproliferative activity IC50, A549
# Protocol: as §1
# [6] = tested on: MCF-7 cells; assay: MTT antiproliferative assay, MCF-7; format: cell-based, human; conditions: Homo sapiens, MCF7, read-out: In vitro antiproliferative activity IC50, MCF-7
# Protocol: as §1
# epidermal growth factor receptor (EGFR), sequence (P00533 25-1210): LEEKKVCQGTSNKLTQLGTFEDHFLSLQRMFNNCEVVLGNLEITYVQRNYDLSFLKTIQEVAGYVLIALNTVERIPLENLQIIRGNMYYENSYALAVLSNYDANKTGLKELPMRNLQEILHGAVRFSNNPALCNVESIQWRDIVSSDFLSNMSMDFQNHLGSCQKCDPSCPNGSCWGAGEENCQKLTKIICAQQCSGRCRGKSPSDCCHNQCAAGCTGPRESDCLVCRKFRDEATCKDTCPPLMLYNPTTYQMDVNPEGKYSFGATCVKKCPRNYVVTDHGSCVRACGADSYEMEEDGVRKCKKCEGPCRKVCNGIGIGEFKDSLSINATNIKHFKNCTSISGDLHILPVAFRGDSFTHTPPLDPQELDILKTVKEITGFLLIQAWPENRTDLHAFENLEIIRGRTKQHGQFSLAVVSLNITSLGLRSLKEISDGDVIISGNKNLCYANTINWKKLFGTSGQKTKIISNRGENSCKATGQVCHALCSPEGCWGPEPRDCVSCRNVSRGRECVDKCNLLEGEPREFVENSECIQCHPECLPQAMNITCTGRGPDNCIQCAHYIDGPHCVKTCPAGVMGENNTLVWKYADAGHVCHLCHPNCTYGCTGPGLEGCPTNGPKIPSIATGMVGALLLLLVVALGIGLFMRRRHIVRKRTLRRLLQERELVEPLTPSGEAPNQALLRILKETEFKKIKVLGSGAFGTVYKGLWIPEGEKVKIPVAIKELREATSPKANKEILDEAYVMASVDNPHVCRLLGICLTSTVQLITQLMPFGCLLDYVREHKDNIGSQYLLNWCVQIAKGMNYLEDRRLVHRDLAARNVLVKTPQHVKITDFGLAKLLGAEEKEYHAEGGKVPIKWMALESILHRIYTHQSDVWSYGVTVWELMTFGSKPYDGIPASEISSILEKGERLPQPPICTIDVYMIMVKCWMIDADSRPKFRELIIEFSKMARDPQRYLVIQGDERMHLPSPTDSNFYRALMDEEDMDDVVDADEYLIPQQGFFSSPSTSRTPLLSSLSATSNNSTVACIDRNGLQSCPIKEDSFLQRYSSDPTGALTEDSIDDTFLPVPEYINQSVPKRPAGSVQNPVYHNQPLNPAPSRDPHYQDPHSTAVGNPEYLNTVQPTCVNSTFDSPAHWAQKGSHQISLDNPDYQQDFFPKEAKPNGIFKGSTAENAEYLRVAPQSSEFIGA
IC50 [1] [µM],IC50 [3] [µM],IC50 [4] [µM],IC50 [5] [µM],IC50 [6] [µM],melting point [°C],Compound,CC50 at 24 h [2] [µM]
41,11.2,43,33.2,50.9,241 to 243,"COc1ccc(/C=N/NC(=O)c2ccc(N3N=C(c4cccc(Cl)c4)CC3c3ccc4ccccc4c3)cc2)cc1 (stereo not drawn) [Compound H29, (E)-4-(3-(3-Chlorophenyl)-5-(naphthalen-2-yl)-4,5-dihydro-1H-pyrazol-1-yl)-N′-(4-methoxybenzylidene)-benzohydrazide]",94.4
34.2,9.01,26.5,21.8,31.9,245 to 247,"COc1cccc(/C=N/NC(=O)c2ccc(N3N=C(c4ccc(Br)cc4)CC3c3ccc4ccccc4c3)cc2)c1 (stereo not drawn) [Compound H16, (E)-4-(3-(4-Bromophenyl)-5-(naphthalen-2-yl)-4,5-dihydro-1H-pyrazol-1-yl)-N′-(3-methoxybenzylidene)-benzohydrazide]",81.9
62.9,13.8,54.2,44.1,59,236 to 238,"COc1ccc(/C=N/NC(=O)c2ccc(N3N=C(c4ccc(F)cc4)CC3c3ccc4ccccc4c3)cc2)cc1 (stereo not drawn) [Compound H27, (E)-4-(3-(4-Fluorophenyl)-5-(naphthalen-2-yl)-4,5-dihydro-1H-pyrazol-1-yl)-N'-(4-methoxybenzylidene)-benzohydrazide]",89.4
92.5,20,84.1,58.6,80.1,241 to 243,"COc1cccc(/C=N/NC(=O)c2ccc(N3N=C(c4cccc(F)c4)CC3c3ccc4ccccc4c3)cc2)c1 (stereo not drawn) [Compound H10, (E)-4-(3-(3-Fluorophenyl)-5-(naphthalen-2-yl)-4,5-dihydro-1H-pyrazol-1-yl)-N′-(3-methoxybenzylidene)-benzohydrazide]",95.8
38.2,10,35.3,28.6,40.4,237 to 239,"COc1ccc(/C=N/NC(=O)c2ccc(N3N=C(c4ccc(Cl)cc4)CC3c3ccc4ccccc4c3)cc2)cc1 (stereo not drawn) [Compound H30, (E)-4-(3-(4-Chlorophenyl)-5-(naphthalen-2-yl)-4,5-dihydro-1H-pyrazol-1-yl)-N′-(4-methoxybenzylidene)-benzohydrazide]",88.5
40.2,10.3,37.4,30.1,42.5,236 to 238,"COc1cccc(/C=N/NC(=O)c2ccc(N3N=C(c4ccc(Cl)cc4)CC3c3ccc4ccccc4c3)cc2)c1 (stereo not drawn) [Compound H14, (E)-4-(3-(4-Chlorophenyl)-5-(naphthalen-2-yl)-4,5-dihydro-1H-pyrazol-1-yl)-N′-(3-methoxybenzylidene)-benzohydrazide]",90.1
19.8,7.2,17.1,10.7,15.9,233 to 235,"CCOc1ccc(C2=NN(c3ccc(C(=O)N/N=C/c4cccc(OC)c4)cc3)C(c3ccc4ccccc4c3)C2)cc1 (stereo not drawn) [Compound H8, (E)-4-(3-(4-Ethoxyphenyl)-5-(naphthalen-2-yl)-4,5-dihydro-1H-pyrazol-1-yl)-N′-(3-methoxybenzylidene)-benzohydrazide]",79.7
45.4,11.9,46.4,35.2,51.3,231 to 233,"COc1cccc(/C=N/NC(=O)c2ccc(N3N=C(c4cccc(Cl)c4)CC3c3ccc4ccccc4c3)cc2)c1 (stereo not drawn) [Compound H13, (E)-4-(3-(3-Chlorophenyl)-5-(naphthalen-2-yl)-4,5-dihydro-1H-pyrazol-1-yl)-N′-(3-methoxybenzylidene)-benzohydrazide]",93.4
60.9,14.1,56.2,45.2,60.8,235 to 237,"COc1cccc(/C=N/NC(=O)c2ccc(N3N=C(c4ccc(F)cc4)CC3c3ccc4ccccc4c3)cc2)c1 (stereo not drawn) [Compound H11, (E)-4-(3-(4-Fluorophenyl)-5-(naphthalen-2-yl)-4,5-dihydro-1H-pyrazol-1-yl)-N′-(3-methoxybenzylidene)-benzohydrazide]",86.5
71.1,15.3,61.9,48.6,65.5,244 to 246,"COc1ccc(/C=N/NC(=O)c2ccc(N3N=C(c4ccccc4F)CC3c3ccc4ccccc4c3)cc2)cc1 (stereo not drawn) [Compound H25, (E)-4-(3-(2-Fluorophenyl)-5-(naphthalen-2-yl)-4,5-dihydro-1H-pyrazol-1-yl)-N′-(4-methoxybenzylidene)-benzohydrazide]",85.6
89.5,24.6,94.1,75.7,93.2,237 to 239,"COc1ccc(/C=N/NC(=O)c2ccc(N3N=C(c4cc(OC)c(OC)c(OC)c4)CC3c3ccc4ccccc4c3)cc2)cc1 (stereo not drawn) [Compound H23, (E)-N′-(4-Methoxybenzylidene)-4-(5-(naphthalen-2-yl)-3-(3,4,5-trimethoxyphenyl)-4,5-dihydro-1H-pyrazol-1-yl)benzohydrazide]",85.8
52.3,12.8,50.3,41.5,55.6,225 to 227,"COc1cccc(/C=N/NC(=O)c2ccc(N3N=C(c4cc(F)cc(F)c4)CC3c3ccc4ccccc4c3)cc2)c1 (stereo not drawn) [Compound H12, (E)-4-(3-(3,5-Difluorophenyl)-5-(naphthalen-2-yl)-4,5-dihydro-1H-pyrazol-1-yl)-N′-(3-methoxybenzylidene) benzohydrazide]",80.2
> 100,26.9,> 100,78.3,95.3,230 to 232,"COc1cccc(/C=N/NC(=O)c2ccc(N3N=C(c4cc(OC)c(OC)c(OC)c4)CC3c3ccc4ccccc4c3)cc2)c1 (stereo not drawn) [Compound H7, (E)-N′-(3-Methoxybenzylidene)-4-(5-(naphthalen-2-yl)-3-(3,4,5-trimethoxyphenyl)-4,5-dihydro-1H-pyrazol-1-yl)benzohydrazide]",92.9
18.6,6.65,15.3,9.92,13.8,237 to 239,"CCOc1ccc(C2=NN(c3ccc(C(=O)N/N=C/c4ccc(OC)cc4)cc3)C(c3ccc4ccccc4c3)C2)cc1 (stereo not drawn) [Compound H24, (E)-4-(3-(4-Ethoxyphenyl)-5-(naphthalen-2-yl)-4,5-dihydro-1H-pyrazol-1-yl)-N′-(4-methoxybenzylidene)-benzohydrazide]",81.3

Compound,IC50 [1] [µM],IC50 [3] [µM],IC50 [4] [µM],IC50 [5] [µM],IC50 [6] [µM],melting point [°C],CC50 at 24 h [2] [µM]
"C#Cc1cccc(Nc2ncnc3cc(OCCOC)c(OCCOC)cc23)c1 [Erlotinib, reference compound]",0.1,–,0.17,0.2,0.12,–,–
